Experimental data taken from patent US20260027068A1, “METHODS OF ADM[…]-KETAMINE” (Perception Neuroscience, Inc., priority 2022, published 2026).

System: subjects with TRD
Assay: Adverse events (TEAEs, SAEs) in the TRD study
Type: in vivo, human
Conditions: 30 mg (n = 33)
Excerpt: The definitions of an AE and SAE can be found in Section F. AEs were reported by the subject (or, when appropriate, by a caregiver, surrogate, or the subject's legally authorized representative). The Investigator and any designees were responsible for detecting, documenting, and recording events that meet the definition of an AE or SAE and remained responsible for following up AEs that were serious, considered related to the study treatment or study procedures, or that caused the subject to discontinue from the study.
All AEs were collected from the signing of the ICF until the second follow-up visit (Day 15) at the time points specified in the Schedule of Activities (Section C). Medical occurrences that began before the start of study treatment but after obtaining informed consent were recorded on the Medical History/Current Medical Conditions section of the CRF, not the AE section. All SAEs were recorded and reported to the Sponsor or designee within 24 hours as indicated in Section F. The Investigator submitted any updated SAE data to the Sponsor or designee within 24 hours of it being available. Investigators were not obligated to actively seek AE or SAE information after the conclusion of study participation. However, if the Investigator learns of any SAE, including a death, at any time after a subject has been discharged from the study, and he/she considers the event to be reasonably related to the study treatment or study participation, the Investigator must promptly notify the Sponsor or designee. The method of recording, evaluating, and assessing the causality of AEs and SAEs and the procedures for completing and transmitting SAE reports are provided in Section F.
An AE is any untoward medical occurrence in a patient or subject, temporally associated with the use of study treatment, whether or not considered related to the study treatment. An AE can therefore be any unfavorable and unintended sign (including an abnormal laboratory finding), symptom, or disease (new or exacerbated) temporally associated with the use of study treatment.
If an event is not an AE per the definition above, then it cannot be an SAE even if serious conditions are met (e.g., hospitalization for signs/symptoms of the disease under study). A Serious Adverse Event (SAE) is defined as any untoward medical occurrence that, at any dose: a) results in death; b) is life-threatening; c) requires inpatient hospitalization or prolongation of existing hospitalization; d) results in persistent disability/incapacity; or e) is a congenital anomaly/birth defect. The term “life-threatening” in the definition of “serious” refers to an event in which the subject was at risk of death at the time of the event. […] In general, hospitalization signifies that the subject has been detained (usually involving at least an overnight stay) at the hospital or emergency ward for observation and/or treatment that would not have been appropriate in the physician's office or outpatient setting. Complications that occur during hospitalization are AEs. If a complication prolongs hospitalization or fulfills any other serious criteria, the event is serious. When in doubt as to whether “hospitalization” occurred or was necessary, the AE should be considered serious. […] The term disability means a substantial disruption of a person's ability to conduct normal life functions.
(MedDRA; Version 23.0 or higher). Treatment-emergent adverse events (TEAEs) are AEs with onset or worsening after the start of study treatment. The AE summaries will be primarily based on TEAEs. The number and percentage of subjects with TEAEs will be summarized by treatment group, system organ class, and preferred term for all TEAEs, treatment-related TEAEs, SAEs, serious TEAEs, severe TEAEs, TEAEs of special interest, and all TEAEs leading to study drug discontinuation. All TEAEs will be further summarized by maximum severity and causality. The TEAEs of special interest will be identified in the SAP. […]

SMILES: CN[C@@]1(c2ccccc2Cl)CCCCC1=O [PCN 101]
- Number of subjects with any treatment-emergent adverse events: 11
- Number of treatment-emergent adverse events: 22
- Subjects with any treatment-emergent adverse events: (%) of subjects: (33)
- TEAE PT Alopecia: (%) of subjects: (0)
- TEAE PT Alopecia: number of subjects: 0
- TEAE PT Aversion: (%) of subjects: (0)
- TEAE PT Aversion: number of subjects: 0
- TEAE PT Balance disorder: (%) of subjects: (0)
- TEAE PT Balance disorder: number of subjects: 0
- TEAE PT Blood pressure increased: (%) of subjects: (0)
- TEAE PT Blood pressure increased: number of subjects: 0
- TEAE PT Bruxism: (%) of subjects: (0)
- TEAE PT Bruxism: number of subjects: 0
- TEAE PT Confusional state: (%) of subjects: (0)
- TEAE PT Confusional state: number of subjects: 0
- TEAE PT Defect conduction intraventricular: (%) of subjects: (0)
- TEAE PT Defect conduction intraventricular: number of subjects: 0
- TEAE PT Derealisation: (%) of subjects: (12)
- TEAE PT Derealisation: number of subjects: 4
- TEAE PT Diarrhoea: (%) of subjects: (0)
- TEAE PT Diarrhoea: number of subjects: 0
- TEAE PT Dissociation: (%) of subjects: (0)
- TEAE PT Dissociation: number of subjects: 0
- TEAE PT Dizziness: (%) of subjects: (6)
- TEAE PT Dizziness: number of subjects: 2
- TEAE PT Dry mouth: (%) of subjects: (0)
- TEAE PT Dry mouth: number of subjects: 0
- TEAE PT Dysarthria: (%) of subjects: (0)
- TEAE PT Dysarthria: number of subjects: 0
- TEAE PT Dyspnoea exertional: (%) of subjects: (3)
- TEAE PT Dyspnoea exertional: number of subjects: 1
- TEAE PT Energy increased: (%) of subjects: (0)
- TEAE PT Energy increased: number of subjects: 0
- TEAE PT Euphoric mood: (%) of subjects: (0)
- TEAE PT Euphoric mood: number of subjects: 0
- TEAE PT Fatigue: (%) of subjects: (0)
- TEAE PT Fatigue: number of subjects: 0
- TEAE PT Feeling abnormal: (%) of subjects: (0)
- TEAE PT Feeling abnormal: number of subjects: 0
- TEAE PT Feeling drunk: (%) of subjects: (0)
- TEAE PT Feeling drunk: number of subjects: 0
- TEAE PT Haematuria: (%) of subjects: (3)
- TEAE PT Haematuria: number of subjects: 1
- TEAE PT Headache: (%) of subjects: (9)
- TEAE PT Headache: number of subjects: 3
- TEAE PT Hyperacusis: (%) of subjects: (0)
- TEAE PT Hyperacusis: number of subjects: 0
- TEAE PT Hyperhidrosis: (%) of subjects: (3)
- TEAE PT Hyperhidrosis: number of subjects: 1
- TEAE PT Hyperphagia: (%) of subjects: (0)
- TEAE PT Hyperphagia: number of subjects: 0
- TEAE PT Hypoaesthesia oral: (%) of subjects: (0)
- TEAE PT Hypoaesthesia oral: number of subjects: 0
- TEAE PT Hypoaesthesia: (%) of subjects: (0)
- TEAE PT Hypoaesthesia: number of subjects: 0
- TEAE PT Increased appetite: (%) of subjects: (0)
- TEAE PT Increased appetite: number of subjects: 0
- TEAE PT Influenza like illness: (%) of subjects: (0)
- TEAE PT Influenza like illness: number of subjects: 0
- TEAE PT Infusion site hypoaesthesia: (%) of subjects: (0)
- TEAE PT Infusion site hypoaesthesia: number of subjects: 0
- TEAE PT Left ventricular hypertrophy: (%) of subjects: (0)
- TEAE PT Left ventricular hypertrophy: number of subjects: 0
- TEAE PT Lethargy: (%) of subjects: (0)
- TEAE PT Lethargy: number of subjects: 0
- TEAE PT Limb discomfort: (%) of subjects: (0)
- TEAE PT Limb discomfort: number of subjects: 0
- TEAE PT Logorrhoea: (%) of subjects: (0)
- TEAE PT Logorrhoea: number of subjects: 0
- TEAE PT Memory impairment: (%) of subjects: (0)
- TEAE PT Memory impairment: number of subjects: 0
- TEAE PT Muscle strain: (%) of subjects: (3)
- TEAE PT Muscle strain: number of subjects: 1
- TEAE PT Muscular weakness: (%) of subjects: (0)
- TEAE PT Muscular weakness: number of subjects: 0
- TEAE PT Nausea: (%) of subjects: (0)
- TEAE PT Nausea: number of subjects: 0
- TEAE PT Paraesthesia: (%) of subjects: (0)
- TEAE PT Paraesthesia: number of subjects: 0
- TEAE PT Rhinorrhoea: (%) of subjects: (0)
- TEAE PT Rhinorrhoea: number of subjects: 0
- TEAE PT Sedation: (%) of subjects: (0)
- TEAE PT Sedation: number of subjects: 0
- TEAE PT Sensory disturbance: (%) of subjects: (3)
- TEAE PT Sensory disturbance: number of subjects: 1
- TEAE PT Sinusitis: (%) of subjects: (0)
- TEAE PT Sinusitis: number of subjects: 0
- TEAE PT Skin abrasion: (%) of subjects: (0)
- TEAE PT Skin abrasion: number of subjects: 0
- TEAE PT Slow speech: (%) of subjects: (0)
- TEAE PT Slow speech: number of subjects: 0
- TEAE PT Smoke sensitivity: (%) of subjects: (0)
- TEAE PT Smoke sensitivity: number of subjects: 0
- TEAE PT Somnolence: (%) of subjects: (12)
- TEAE PT Somnolence: number of subjects: 4
- TEAE PT Tachycardia: (%) of subjects: (0)
- TEAE PT Tachycardia: number of subjects: 0
- TEAE PT Throat tightness: (%) of subjects: (0)
- TEAE PT Throat tightness: number of subjects: 0
- TEAE PT Time perception altered: (%) of subjects: (0)
- TEAE PT Time perception altered: number of subjects: 0
- TEAE PT Urinary tract infection: (%) of subjects: (3)
- TEAE PT Urinary tract infection: number of subjects: 1
- TEAE PT Venous injury: (%) of subjects: (0)
- TEAE PT Venous injury: number of subjects: 0
- TEAE PT Vertigo: (%) of subjects: (3)
- TEAE PT Vertigo: number of subjects: 1
- TEAE PT Vessel puncture site erythema: (%) of subjects: (3)
- TEAE PT Vessel puncture site erythema: number of subjects: 1
- TEAE PT Vision blurred: (%) of subjects: (0)
- TEAE PT Vision blurred: number of subjects: 0
- TEAE PT Visual impairment: (%) of subjects: (0)
- TEAE PT Visual impairment: number of subjects: 0
- TEAE SOC Cardiac disorders: (%) of subjects: (0)
- TEAE SOC Cardiac disorders: number of subjects: 0
- TEAE SOC Ear and labyrinth disorders: (%) of subjects: (3)
- TEAE SOC Ear and labyrinth disorders: number of subjects: 1
- TEAE SOC Eye disorders: (%) of subjects: (0)
- TEAE SOC Eye disorders: number of subjects: 0
- TEAE SOC Gastrointestinal disorders: (%) of subjects: (0)
- TEAE SOC Gastrointestinal disorders: number of subjects: 0
- TEAE SOC General disorders and administration site conditions: (%) of subjects: (3)
- TEAE SOC General disorders and administration site conditions: number of subjects: 1
- TEAE SOC Immune system disorders: (%) of subjects: (0)
- TEAE SOC Immune system disorders: number of subjects: 0
- TEAE SOC Infections and infestations: (%) of subjects: (3)
- TEAE SOC Infections and infestations: number of subjects: 1
- TEAE SOC Injury, poisoning and procedural complications: (%) of subjects: (3)
- TEAE SOC Injury, poisoning and procedural complications: number of subjects: 1
- TEAE SOC Investigations: (%) of subjects: (0)
- TEAE SOC Investigations: number of subjects: 0
- TEAE SOC Metabolism and nutrition disorders: (%) of subjects: (0)
- TEAE SOC Metabolism and nutrition disorders: number of subjects: 0
- TEAE SOC Musculoskeletal and connective tissue disorders: (%) of subjects: (0)
- TEAE SOC Musculoskeletal and connective tissue disorders: number of subjects: 0
- TEAE SOC Nervous system disorders: (%) of subjects: (27)
- TEAE SOC Nervous system disorders: number of subjects: 9
- TEAE SOC Psychiatric disorders: (%) of subjects: (12)
- TEAE SOC Psychiatric disorders: number of subjects: 4
- TEAE SOC Renal and urinary disorders: (%) of subjects: (3)
- TEAE SOC Renal and urinary disorders: number of subjects: 1
- TEAE SOC Respiratory, thoracic and mediastinal disorders: (%) of subjects: (3)
- TEAE SOC Respiratory, thoracic and mediastinal disorders: number of subjects: 1
- TEAE SOC Skin and subcutaneous tissue disorders: (%) of subjects: (3)
- TEAE SOC Skin and subcutaneous tissue disorders: number of subjects: 1
